This passage reports solubility results from patent US12528760B2 (DOMPÉ FARMACEUTICI S.P.A., priority 2019, dated 2026).

This data set is described as follows: Solubility of Lysine in 2-Methyl-1-propanol. As to conditions: organic solvent or mixture. The format is physicochemical.

≈ marks a conversion by molar mass, not a printed value.

For the molecule `NCCCC[C@H](N)C(=O)O` [Lysine], the solubility is around 26 mg/mL (≈ 178 mM).

By solubility is commonly meant how much of the substance goes into solution per volume.
